Measured values reported in paper PMC12073189, “Synthesis and Evaluation of a Novel Zuranolone Analog with High GABAA Receptor PAM Activity and Excellent Pharmacokinetic Profiles” (Molecules, 2025).
Read-outs that look alike come from different tables or passages of the source.

Tests used:
CYP3A4 = target: T1, CYP3A4 (Homo sapiens, UniProt P08684); experiment: Human liver CYP inhibition assay (cocktail, pooled HLM); type: in vitro ADME
T1 construct: tissue XenoTech; host or cells: pooled human liver microsomes
Procedure: (§1) The main materials used in this experiment were sourced as follows: Zuranolone from BEIWANTABIO Co., Ltd. (Shanghai, China); liver microsomes (rat and human) and CYP isoenzymes (CYP1A2, CYP2C8, CYP2D6, CYP3A4) from XenoTech (Tewksbury, MA, USA); LTK cells from the China Center for Type Culture Collection (CCTCC, Wuhan, China); and CHO cells from the National Certified Cell Bank (Shanghai, China).
(§2) The IC50 values of S9 and Zuranolone on CYP isoenzymes (1A2, 2C8, 2D6, 3A4) were determined in pooled HLM using a cocktail approach, as previously reported.

CYP2D6 = target: T2, CYP2D6 (Homo sapiens, UniProt P10635); experiment: as above; type: in vitro ADME
T2 construct: tissue XenoTech; host or cells: pooled human liver microsomes
Procedure: as §1, §2

CYP2C8 = target: T3, CYP2C8 (Homo sapiens, UniProt P10632); experiment: as above; type: in vitro ADME
T3 construct: tissue XenoTech; host or cells: pooled human liver microsomes
T3 sequence (P10632 1-490): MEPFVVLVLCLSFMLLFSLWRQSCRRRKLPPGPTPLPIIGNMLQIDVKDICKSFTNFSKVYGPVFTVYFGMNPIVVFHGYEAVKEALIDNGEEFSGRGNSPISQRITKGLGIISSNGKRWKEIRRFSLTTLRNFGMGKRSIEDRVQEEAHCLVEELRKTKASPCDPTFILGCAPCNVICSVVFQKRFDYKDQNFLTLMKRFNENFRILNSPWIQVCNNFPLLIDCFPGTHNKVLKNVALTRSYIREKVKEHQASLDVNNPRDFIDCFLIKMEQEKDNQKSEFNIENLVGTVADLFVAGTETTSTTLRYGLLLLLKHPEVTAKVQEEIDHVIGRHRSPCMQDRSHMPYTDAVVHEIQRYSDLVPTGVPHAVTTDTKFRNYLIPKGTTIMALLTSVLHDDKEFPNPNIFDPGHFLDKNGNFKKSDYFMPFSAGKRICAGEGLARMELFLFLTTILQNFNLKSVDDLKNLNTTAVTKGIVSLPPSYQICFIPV
Procedure: as §1, §2

α4β3δ GABAA receptor = target: T4, α4β3δ GABAA receptor (Homo sapiens, UniProt P28472+P48169); experiment: Whole-cell electrophysiology of GABA-evoked currents, CHO cells; type: cell-based
T4 construct: expressed in transfected cells; host or cells: CHO cells (transient expression)
Procedure: The α1β2γ2 and α4β3δ GABAA receptor subtypes, representing synaptic and extrasynaptic subunit compositions in neurons, are widely utilized for screening new NAS drugs. In this study, a preliminary SAR study was conducted on a series of Zuranolone analogs using the LogP values predicted by ADMETlab3.0 software, recombinant human GABAA receptor cell lines, and in vitro liver microsome stability assays. The results are summarized in Table 1, Table 2, and Table 3, respectively.
The effects of Zuranolone and synthetic analogs on GABA-evoked currents were assessed in LTK cells stably expressing α1β2γ2 GABAA receptor subunits (n = 3) or CHO cells transiently expressing α4β3δ receptors (n = 3). Whole-cell mode recordings were conducted using the HEKA EPC-10 amplifier and analyzed with PatchMaster software (version 2x90, HEKA Elektronik, Lambrecht, Germany). High-throughput whole-cell recordings were performed using the Q-Patch method from Sophion. Test substances were dissolved in DMSO (dimethyl sulfoxide) to prepare 10 mmol/L stock solutions, then diluted with perfusion bath solution to concentrations ranging from 0.01 to 10 μmol/L. In this experiment, the effects of Zuranolone and its synthetic analogs on GABA-induced currents were examined in the presence of a submaximal agonist concentration at 1 μmol/L GABA (EC20). Cells were pre-incubated with increasing doses of test substances for 30 s, followed by 2 s of GABA stimulation, and currents were recorded. The maximum efficacy (Emax) of the GABAA receptor is expressed with the current induced by 1 μmol/L GABA taken as 100%, and the percentage after treatment with the test compound is calculated. The EC50 values are determined by fitting the three concentration–response curves recorded from three cells.

[1] = Liver microsome metabolic stability (RLM); type: in vitro ADME, rat; design: microsomal CLint at 1 μmol/L: unit not given here; settings: for half-life at 1 μmol/L: read-out: RLM T1/2
Procedure: We quantified S1–S15 and Zuranolone using a UPLC-MS/MS (Agilent 1290 Infinity II UHPLC (Agilent Technologies, Santa Clara, CA, USA) coupled with a QTRAP 5500 MS/MS (ESI source) (SCIEX, Redwood City, CA, USA for MS/MS). The method assessed the content level of S9 and Zuranolone in microsome metabolism and in rat brain tissue and plasma. An ACQUITY UPLC Peptide BEH C18 column (Waters; 50 × 2.1 mm, 1.7 μm; 60 °C; Waters Corporation, Milford, MA, USA) was used with a mobile phase of 0.02% propionic acid in water (A) and acetonitrile (B). The gradient elution of the mobile phase B is carried out as follows: it is 10% from 0 to 0.5 min, 90% from 0.8 to 2.5 min, and 10% from 2.8 to 3.5 min, with a flow rate of 0.40 mL/min. Quantitative analysis was performed on a QTRAP 5500 MS (SCIEX, Redwood City, CA, USA) in positive ionization mode with MRM (multiple reaction monitoring), using progesterone-d9 as the internal standard. MRM transitions and parameters were optimized for each analyte, with collision energies of 25 V (S1–S15), 23 V (Zuranolone), and 30 V (IS), and declustering potentials of 80 V (S1–S15), 90 V (Zuranolone), and 180 V (IS). Other conditions were as follows: curtain gas 10 psi, collision gas ‘medium’, ion spray voltage 5500 V, temperature 500 °C, and ionization source gases 1 and 2 at 50 psi.
To evaluate the metabolic stability of compounds S1–S15 and Zuranolone in RLM and HLM, we designed the following in vitro liver microsome metabolism assay protocol. In a 1.5 mL centrifuge tube, sequentially add 173 μL of PBS (0.1 M, pH 7.4), 5 μL of liver microsomes (20 mg/mL), and 2 μL of the test compound (100 μmol/L). After thorough mixing, pre-incubate at 37 °C for 10 min. Subsequently, add 20 μL of NADPH to initiate the metabolism, with a parallel control without NADPH, to validate the background signal. Samples were collected at 0, 5, 10, 20, 30, and 60 min post-reaction initiation. At each designated time point, we quenched the reaction with ice-cold acetonitrile (600 μL). After centrifuging the mixture, we analyzed the supernatant using UPLC-MS/MS. For data analysis, the compound concentration at 0 min was set as 100%, with concentrations at subsequent time points expressed as residual percentages relative to the initial value, and the in vitro half-life (T1/2) and intrinsic clearance (CLint) were calculated.

T4 sequence (P48169 36-554): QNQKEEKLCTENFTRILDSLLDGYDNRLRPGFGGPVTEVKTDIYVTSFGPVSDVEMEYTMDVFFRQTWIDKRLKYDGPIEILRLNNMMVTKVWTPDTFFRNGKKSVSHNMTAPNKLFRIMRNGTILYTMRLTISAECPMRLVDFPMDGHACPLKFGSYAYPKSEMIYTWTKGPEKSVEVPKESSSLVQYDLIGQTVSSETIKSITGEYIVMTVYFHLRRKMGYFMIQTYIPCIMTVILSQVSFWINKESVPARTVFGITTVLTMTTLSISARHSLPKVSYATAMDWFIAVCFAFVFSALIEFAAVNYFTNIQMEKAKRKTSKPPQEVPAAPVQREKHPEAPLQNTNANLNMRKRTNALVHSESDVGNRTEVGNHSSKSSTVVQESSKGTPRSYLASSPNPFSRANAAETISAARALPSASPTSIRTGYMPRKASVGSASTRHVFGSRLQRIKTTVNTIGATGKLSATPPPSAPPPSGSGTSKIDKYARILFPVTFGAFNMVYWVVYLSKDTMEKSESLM
T4 sequence (P28472 26-473): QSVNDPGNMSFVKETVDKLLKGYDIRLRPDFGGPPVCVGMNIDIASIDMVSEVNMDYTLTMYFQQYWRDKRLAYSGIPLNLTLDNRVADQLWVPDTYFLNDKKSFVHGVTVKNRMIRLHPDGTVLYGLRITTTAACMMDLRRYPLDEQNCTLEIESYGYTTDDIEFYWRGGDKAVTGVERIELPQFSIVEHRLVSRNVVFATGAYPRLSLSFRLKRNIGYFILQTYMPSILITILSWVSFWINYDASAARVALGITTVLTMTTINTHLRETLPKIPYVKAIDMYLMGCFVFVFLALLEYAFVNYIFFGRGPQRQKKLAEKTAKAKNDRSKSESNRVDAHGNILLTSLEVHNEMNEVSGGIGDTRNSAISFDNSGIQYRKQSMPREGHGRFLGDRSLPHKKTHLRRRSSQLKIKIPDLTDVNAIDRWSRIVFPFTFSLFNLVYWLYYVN
T4 sequence (O14764 25-452 partner): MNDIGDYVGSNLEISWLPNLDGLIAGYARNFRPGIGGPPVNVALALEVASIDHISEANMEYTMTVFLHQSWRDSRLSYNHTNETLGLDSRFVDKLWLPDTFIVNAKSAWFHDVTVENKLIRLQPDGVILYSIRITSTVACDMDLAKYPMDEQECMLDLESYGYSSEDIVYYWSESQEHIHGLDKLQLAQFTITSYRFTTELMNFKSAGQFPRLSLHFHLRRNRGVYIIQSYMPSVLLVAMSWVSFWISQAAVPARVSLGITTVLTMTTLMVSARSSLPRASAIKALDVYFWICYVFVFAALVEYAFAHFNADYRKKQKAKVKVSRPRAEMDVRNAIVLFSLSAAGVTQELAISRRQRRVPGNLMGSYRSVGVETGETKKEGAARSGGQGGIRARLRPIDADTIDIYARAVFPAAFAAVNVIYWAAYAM
T2 sequence (P10635 whole entry): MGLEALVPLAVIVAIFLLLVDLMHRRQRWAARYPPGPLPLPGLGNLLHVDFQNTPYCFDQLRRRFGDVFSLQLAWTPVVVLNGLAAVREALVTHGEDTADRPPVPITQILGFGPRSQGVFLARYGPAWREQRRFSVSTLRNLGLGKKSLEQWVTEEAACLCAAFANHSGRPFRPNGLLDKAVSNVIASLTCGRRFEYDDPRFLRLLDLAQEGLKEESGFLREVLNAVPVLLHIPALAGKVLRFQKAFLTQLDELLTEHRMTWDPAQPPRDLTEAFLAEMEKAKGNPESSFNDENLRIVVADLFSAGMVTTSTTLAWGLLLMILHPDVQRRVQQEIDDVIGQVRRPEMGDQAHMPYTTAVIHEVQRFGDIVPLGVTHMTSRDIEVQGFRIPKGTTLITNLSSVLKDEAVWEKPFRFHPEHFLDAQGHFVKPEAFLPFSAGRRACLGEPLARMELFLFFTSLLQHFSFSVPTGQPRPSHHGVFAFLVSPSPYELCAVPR
T1 sequence (P08684 whole entry): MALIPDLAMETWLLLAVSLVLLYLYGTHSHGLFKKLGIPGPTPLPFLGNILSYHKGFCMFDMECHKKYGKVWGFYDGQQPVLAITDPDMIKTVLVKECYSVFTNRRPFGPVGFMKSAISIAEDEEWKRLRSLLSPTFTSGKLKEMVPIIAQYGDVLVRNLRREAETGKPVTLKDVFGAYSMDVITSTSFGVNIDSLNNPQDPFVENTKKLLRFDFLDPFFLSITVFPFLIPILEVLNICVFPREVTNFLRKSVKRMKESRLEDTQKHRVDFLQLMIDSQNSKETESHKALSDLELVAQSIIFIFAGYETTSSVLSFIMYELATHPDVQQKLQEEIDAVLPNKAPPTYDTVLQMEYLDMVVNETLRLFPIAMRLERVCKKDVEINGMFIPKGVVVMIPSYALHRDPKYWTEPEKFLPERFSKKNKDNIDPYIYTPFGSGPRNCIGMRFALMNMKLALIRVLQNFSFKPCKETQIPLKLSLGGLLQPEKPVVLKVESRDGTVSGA

## C[C@@]1(O)CC[C@H]2[C@H](CC[C@@H]3[C@@H]2CC[C@]2(C)[C@@H](C(=O)Cn4cnn(-c5ccnc(OCC(F)(F)F)c5)c4=O)CC[C@@H]32)C1 [S9]
CYP3A4; human liver CYP isoenzymes, pooled HLM, read-out: CYP IC50: 3A4
  IC50: > 30 µM
CYP2D6; human liver CYP isoenzymes, pooled HLM, read-out: CYP IC50: 2D6
  IC50: > 30 µM
CYP2C8; human liver CYP isoenzymes, pooled HLM, read-out: CYP IC50: 2C8
  IC50: > 30 µM
α4β3δ GABAA receptor; CHO cells, 1 μmol/L GABA (EC20), n = 3, read-out: α4β3δ EC50
  EC50: 0.034 ± 0.01 µM
α4β3δ GABAA receptor; CHO cells, current induced by 1 μmol/L GABA = 100%, n = 3
  Emax: 967 ± 118%
α4β3δ GABAA receptor; extrasynaptic GABAA receptors
  efficacy as % of that of Zuranolone: 71%
  potency as % of that of Zuranolone: 270%
[1]; RLM
  fold longer T1/2 than Zuranolone: 4 fold
  fold lower CLint than Zuranolone: 6.5 fold
[1]; pH 7.4, rat liver microsomes
  half-life at 1 μmol/L: 3.1 h
[1]; pH 7.4, rat liver microsomes, read-out: RLM intrinsic clearance (CLint)
  microsomal CLint at 1 μmol/L: 8000

## C[C@@]1(O)CC[C@H]2[C@H](CC[C@@H]3[C@@H]2CC[C@]2(C)[C@@H](C(=O)Cn4cc(C#N)cn4)CC[C@@H]32)C1 [Zuranolone]
CYP3A4
  IC50: > 30 µM
CYP2D6
  IC50: > 30 µM
CYP2C8
  IC50: > 30 µM
α4β3δ GABAA receptor
  EC50: 0.093 ± 0.01 µM
[1]; pH 7.4, rat liver microsomes
  half-life at 1 μmol/L: 0.8 h
